Measurements taken from PubChem BioAssay (NCI).
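All cell lines were grown in 96-well plates and treated with compound for 48 hours. Abbreviation: GI50, concentration required for 50% inhibition of growth. TGI: total growth inhibition.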

Experiments:
Test in all cases: growth of human tumour cells (NCI), 48 h
[1] = test system: HCT-15 colon
[2] = test system: HOP-62 NSCLC
[3] = test system: LOX IMVI melanoma
[4] = test system: NCI/ADR-RES ovarian
[5] = test system: OVCAR-3 ovarian
[6] = test system: PC-3 prostate
[7] = test system: SF-539 CNS
[8] = test system: UO-31 renal

SMILES	TGI [1] [µM]	TGI [2] [µM]	TGI [3] [µM]	TGI [4] [µM]	TGI [5] [µM]	TGI [6] [µM]	TGI [7] [µM]	TGI [8] [µM]	GI50 [1] [µM]	GI50 [2] [µM]	GI50 [3] [µM]	GI50 [4] [µM]	GI50 [5] [µM]	GI50 [6] [µM]	GI50 [7] [µM]	GI50 [8] [µM]
O=C1c2ccccc2C(=O)c2c1ccc(C1C(=O)c3ccccc3C1=O)c2-c1c(C2C(=O)c3ccccc3C2=O)ccc2c1C(=O)c1ccccc1C2=O	> 100	> 100	> 100	> 100	> 100	> 100	> 100	> 100	–	–	–	–	–	–	–	–
Nc1nc(-c2ccccc2)nc2c1[n+]([O-])c1ccccc1[n+]2[O-]	> 100	> 100	> 100	> 100	> 100	> 100	> 100	> 100	–	–	–	–	–	–	–	–
c1cc(CNCCN2CCNCC2)ccn1	> 100	> 100	> 100	> 100	> 100	> 100	> 100	> 100	–	–	–	–	–	–	–	–
CC[C@@H](C(=O)[C@@H](C)[C@@H](O)[C@H](C)[C@@H]1O[C@@H]([C@@H](CC)C(=O)N(CC)CC)CC[C@@H]1C)C1O[C@]2(C=CC(=O)[C@]3(CC[C@@](C)([C@H]4CC[C@](O)(CC)[C@H](C)O4)O3)O2)[C@H](C)C[C@@H]1C (some centres not stated)	4.51	20.1	3.17	26.9	6.49	24.7	5.47	10.2	2.02	3.75	1.58	2.82	2.34	2.6	2.26	2.42
COC(=O)C1=C(C)NC(C)=C(C(=O)OC)C1/C=C(Cl)/C=C/c1ccccc1	> 100	38.5	28.8	44.3	31.9	38.3	41.2	> 100	29.7	20.1	15.1	18.4	15.3	18.2	21	23.9
N#CSCC1CC(O)(c2ccccc2)CC(c2ccc(F)cc2)O1 (configuration not stated)	4.89	3.61	3.1	4.77	2.76	8.38	3.66	6.03	1.76	1.99	1.7	1.92	1.45	2.49	1.96	1.82
COc1ccc(/C(C#N)=C/c2ccc(OC)c(OC)c2)cc1	> 100	> 100	> 100	> 100	> 100	> 100	> 100	> 100	–	–	–	–	–	–	–	–
Fc1ccc(Nc2nc3nonc3nc2Nc2ccc(F)cc2)cc1	11.7	2.13	4.29	2.76	11	11.2	11.6	1.33	0.384	0.319	0.469	0.329	0.371	0.28	0.486	0.285
O=C(NCc1ccc(Cn2c(=O)sn(-c3ccccc3)c2=O)cc1)OCc1ccc2c(Br)cc(Br)c(O)c2n1	0.572	3.45	0.348	7.06	0.738	2.18	2.07	1.77	0.222	1.52	0.171	1.2	0.267	0.727	0.793	0.392
